Reference: the supplement of paper PMC10307832

Experiments:
Experiment in all cases: relative viability (nuclei count vs DMSO), 5 days (fraction); higher = more cells survive
[1] = compound: C1=CC2=NC=CN=C2C=C1/C=C/3\C(=O)NC(=O)S3 + CC1(C)CCC(c2ccc(Cl)cc2)=C(CN2CCN(c3ccc(C(=O)NS(=O)(=O)c4ccc(N[C@H](CCN5CCOCC5)CSc5ccccc5)c(S(=O)(=O)C(F)(F)F)c4)cc3)CC2)C1 [Navitoclax] (partner 0.5 µM)
In short: (§1)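 Medians of duplicate plates are given as relative viability. That measure is the nuclei count in treated wells divided by the count in vehicle wells. Counts were taken on 4× images of lung cancer cell lines in 1536-well plates, 5 days after pin-tool dosing the day after seeding with one drug alone or a fixed anchor-drug dose plus five library-drug doses (not always all listed) in √10 steps.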

[2] = compound: C1=CC2=NC=CN=C2C=C1/C=C/3\C(=O)NC(=O)S3 + CS(=O)(=O)CCNCc1ccc(-c2ccc3ncnc(Nc4ccc(OCc5cccc(F)c5)c(Cl)c4)c3c2)o1 [Lapatinib] (partner 2 µM)
In short: as §1

BGJ398 + Luminespib = compound: CCN1CCN(c2ccc(Nc3cc(N(C)C(=O)Nc4c(Cl)c(OC)cc(OC)c4Cl)ncn3)cc2)CC1 [BGJ398] + CCNC(=O)c1noc(-c2cc(C(C)C)c(O)cc2O)c1-c1ccc(CN2CCOCC2)cc1 [Luminespib] (partner 0.01 µM)
In short: as §1

BGJ398 + Dasatinib = compound: CCN1CCN(c2ccc(Nc3cc(N(C)C(=O)Nc4c(Cl)c(OC)cc(OC)c4Cl)ncn3)cc2)CC1 [BGJ398] + Cc1nc(Nc2ncc(C(=O)Nc3c(C)cccc3Cl)s2)cc(N2CCN(CCO)CC2)n1 [Dasatinib] (partner 0.075 µM)
In short: as §1

Cell Line: LXF-289
- relative viability ([1]; first compound 0.02 µM): 0.92
- relative viability ([1]; first compound 0.06325 µM): 0.918
- relative viability ([1]; first compound 0.2 µM): 0.898
- relative viability ([1]; first compound 0.6325 µM): 0.917
- relative viability ([1]; first compound 2 µM): 0.932
- relative viability ([2]; first compound 0.02 µM): 0.829
- relative viability ([2]; first compound 0.06325 µM): 0.932
- relative viability ([2]; first compound 0.2 µM): 0.883
- relative viability ([2]; first compound 0.6325 µM): 0.857
- relative viability ([2]; first compound 2 µM): 0.908
- relative viability (BGJ398 + Luminespib; first compound 0.01 µM): 0.668
- relative viability (BGJ398 + Luminespib; first compound 0.03162 µM): 0.643
- relative viability (BGJ398 + Luminespib; first compound 0.1 µM): 0.578
- relative viability (BGJ398 + Luminespib; first compound 0.3162 µM): 0.634
- relative viability (BGJ398 + Luminespib; first compound 1 µM): 0.657
- relative viability (BGJ398 + Dasatinib; first compound 0.01 µM): 0.194
- relative viability (BGJ398 + Dasatinib; first compound 0.03162 µM): 0.218
- relative viability (BGJ398 + Dasatinib; first compound 0.1 µM): 0.184
- relative viability (BGJ398 + Dasatinib; first compound 0.3162 µM): 0.254
- relative viability (BGJ398 + Dasatinib; first compound 1 µM): 0.156

Cell Line: PC-14
- relative viability ([1]; first compound 0.02 µM): 0.871
- relative viability ([1]; first compound 0.06325 µM): 1
- relative viability ([1]; first compound 0.2 µM): 1
- relative viability ([1]; first compound 0.6325 µM): 1
- relative viability ([1]; first compound 2 µM): 1.08
- relative viability ([2]; first compound 0.02 µM): 0.326
- relative viability ([2]; first compound 0.06325 µM): 0.316
- relative viability ([2]; first compound 0.2 µM): 0.284
- relative viability ([2]; first compound 0.6325 µM): 0.348
- relative viability ([2]; first compound 2 µM): 0.24
- relative viability (BGJ398 + Luminespib; first compound 0.01 µM): 0.151
- relative viability (BGJ398 + Luminespib; first compound 0.1 µM): 0.119
- relative viability (BGJ398 + Luminespib; first compound 1 µM): 0.134
- relative viability (BGJ398 + Dasatinib; first compound 0.01 µM): 0.294
- relative viability (BGJ398 + Dasatinib; first compound 0.03162 µM): 0.0382
- relative viability (BGJ398 + Dasatinib; first compound 0.1 µM): 0.234
- relative viability (BGJ398 + Dasatinib; first compound 0.3162 µM): 0.141
- relative viability (BGJ398 + Dasatinib; first compound 1 µM): 0.317

Cell Line: NCI-H1666
- relative viability ([1]; first compound 0.02 µM): 0.9
- relative viability ([1]; first compound 0.06325 µM): 0.954
- relative viability ([1]; first compound 0.2 µM): 0.913
- relative viability ([1]; first compound 0.6325 µM): 0.989
- relative viability ([1]; first compound 2 µM): 0.919
- relative viability ([2]; first compound 0.02 µM): 0.468
- relative viability ([2]; first compound 0.06325 µM): 0.51
- relative viability ([2]; first compound 0.2 µM): 0.693
- relative viability ([2]; first compound 0.6325 µM): 0.643
- relative viability ([2]; first compound 2 µM): 0.499
- relative viability (BGJ398 + Luminespib; first compound 0.01 µM): 1
- relative viability (BGJ398 + Luminespib; first compound 0.03162 µM): 0.998
- relative viability (BGJ398 + Luminespib; first compound 0.1 µM): 0.99
- relative viability (BGJ398 + Luminespib; first compound 0.3162 µM): 1.04
- relative viability (BGJ398 + Luminespib; first compound 1 µM): 0.988
- relative viability (BGJ398 + Dasatinib; first compound 0.01 µM): 0.764
- relative viability (BGJ398 + Dasatinib; first compound 0.03162 µM): 0.802
- relative viability (BGJ398 + Dasatinib; first compound 0.1 µM): 0.911
- relative viability (BGJ398 + Dasatinib; first compound 0.3162 µM): 0.759
- relative viability (BGJ398 + Dasatinib; first compound 1 µM): 0.697

Cell Line: NCI-H2085
- relative viability ([1]; first compound 0.02 µM): 1.09
- relative viability ([1]; first compound 0.06325 µM): 0.975
- relative viability ([1]; first compound 0.2 µM): 1.17
- relative viability ([1]; first compound 0.6325 µM): 1.13
- relative viability ([1]; first compound 2 µM): 1.08
- relative viability ([2]; first compound 0.02 µM): 0.725
- relative viability ([2]; first compound 0.06325 µM): 0.635
- relative viability ([2]; first compound 0.2 µM): 0.785
- relative viability ([2]; first compound 0.6325 µM): 0.755
- relative viability ([2]; first compound 2 µM): 0.713
- relative viability (BGJ398 + Luminespib; first compound 0.01 µM): 0.308
- relative viability (BGJ398 + Luminespib; first compound 0.03162 µM): 0.485
- relative viability (BGJ398 + Luminespib; first compound 0.1 µM): 0.564
- relative viability (BGJ398 + Luminespib; first compound 0.3162 µM): 0.498
- relative viability (BGJ398 + Luminespib; first compound 1 µM): 0.422
- relative viability (BGJ398 + Dasatinib; first compound 0.01 µM): 0.272
- relative viability (BGJ398 + Dasatinib; first compound 0.03162 µM): 0.236
- relative viability (BGJ398 + Dasatinib; first compound 0.1 µM): 0.215
- relative viability (BGJ398 + Dasatinib; first compound 0.3162 µM): 0.279
- relative viability (BGJ398 + Dasatinib; first compound 1 µM): 0.229
